Test results as given in US9598414B2, “Substituted benzo[5,6]azepino[3,2,1-hi]pyrido[4,3-b]indoles and substituted benzo[6,7][1,4]oxazepino[2,3,4-hi]pyrido[4,3-b]indoles for treating CNS disorders” (Daya Drug Discoveries, Inc., priority 2013, dated 2017).
Where two headings read alike, the source gives them in different places.

Key:
Histamine H1 = Histamine H1 (Homo sapiens, UniProt P35367); assay: Receptor binding, H1; details: for Ki: H1
Serotonin 5-HT1D = Serotonin 5-HT1D (Homo sapiens, UniProt P28221); assay: Receptor binding, 5-HT1D
Sequence of Serotonin 5-HT1D (P28221 whole entry): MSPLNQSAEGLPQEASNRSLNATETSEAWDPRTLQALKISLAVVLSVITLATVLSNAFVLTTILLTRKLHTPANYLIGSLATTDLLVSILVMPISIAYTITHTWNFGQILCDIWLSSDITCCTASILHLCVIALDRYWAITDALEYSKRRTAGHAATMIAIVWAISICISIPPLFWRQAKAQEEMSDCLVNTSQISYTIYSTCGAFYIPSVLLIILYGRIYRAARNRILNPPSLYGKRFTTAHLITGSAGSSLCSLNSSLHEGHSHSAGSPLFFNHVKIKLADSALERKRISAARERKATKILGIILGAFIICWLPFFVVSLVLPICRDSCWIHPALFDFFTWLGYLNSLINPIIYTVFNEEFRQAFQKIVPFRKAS

α-Adrenergic α1D = α-Adrenergic α1D (Homo sapiens, UniProt P25100); assay: Receptor binding, α1D
Serotonin 5-HT7 = Serotonin 5-HT7 (Homo sapiens, UniProt P34969); assay: Receptor binding, 5-HT7; details: for Ki: 5-HT7
Sequence of Serotonin 5-HT7 (P34969 whole entry): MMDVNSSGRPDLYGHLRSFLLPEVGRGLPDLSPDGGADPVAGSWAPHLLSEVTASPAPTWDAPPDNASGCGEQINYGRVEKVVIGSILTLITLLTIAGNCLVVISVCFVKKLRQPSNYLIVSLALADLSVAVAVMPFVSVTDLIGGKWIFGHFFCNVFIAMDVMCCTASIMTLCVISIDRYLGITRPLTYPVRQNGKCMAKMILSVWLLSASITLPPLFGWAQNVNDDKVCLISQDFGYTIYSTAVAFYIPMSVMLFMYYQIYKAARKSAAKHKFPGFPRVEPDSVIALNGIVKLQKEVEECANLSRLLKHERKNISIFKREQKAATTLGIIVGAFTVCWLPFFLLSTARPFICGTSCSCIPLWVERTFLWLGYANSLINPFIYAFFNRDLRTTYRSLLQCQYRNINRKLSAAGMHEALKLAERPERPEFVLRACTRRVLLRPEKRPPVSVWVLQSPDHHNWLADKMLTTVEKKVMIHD

Serotonin 5-HT5A = Serotonin 5-HT5A (Homo sapiens, UniProt P47898); assay: Receptor binding, 5-HT5A
α-Adrenergic α2C = target: T1, α-Adrenergic α2C (Homo sapiens, UniProt P18825); assay: Receptor binding, α2C
T1 sequence (P18825 1-462): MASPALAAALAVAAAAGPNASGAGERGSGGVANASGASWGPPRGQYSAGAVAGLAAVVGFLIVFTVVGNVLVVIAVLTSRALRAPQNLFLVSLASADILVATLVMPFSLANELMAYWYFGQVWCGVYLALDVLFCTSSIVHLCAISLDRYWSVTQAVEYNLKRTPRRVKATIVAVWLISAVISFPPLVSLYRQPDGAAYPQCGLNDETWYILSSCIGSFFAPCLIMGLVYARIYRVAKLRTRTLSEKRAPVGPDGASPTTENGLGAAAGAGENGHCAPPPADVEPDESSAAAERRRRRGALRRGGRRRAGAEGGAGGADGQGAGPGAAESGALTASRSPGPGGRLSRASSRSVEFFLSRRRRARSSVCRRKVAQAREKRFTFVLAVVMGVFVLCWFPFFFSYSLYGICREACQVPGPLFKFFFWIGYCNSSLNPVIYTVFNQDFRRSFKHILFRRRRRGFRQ

Muscarinic M5 = Muscarinic M5 (Homo sapiens, UniProt P08912); assay: Receptor binding, M5
Serotonin 5-HT6 = Serotonin 5-HT6 (Homo sapiens, UniProt P50406); assay: Receptor binding, 5-HT6; details: for Ki: 5-HT6
Sequence of Serotonin 5-HT6 (P50406 whole entry): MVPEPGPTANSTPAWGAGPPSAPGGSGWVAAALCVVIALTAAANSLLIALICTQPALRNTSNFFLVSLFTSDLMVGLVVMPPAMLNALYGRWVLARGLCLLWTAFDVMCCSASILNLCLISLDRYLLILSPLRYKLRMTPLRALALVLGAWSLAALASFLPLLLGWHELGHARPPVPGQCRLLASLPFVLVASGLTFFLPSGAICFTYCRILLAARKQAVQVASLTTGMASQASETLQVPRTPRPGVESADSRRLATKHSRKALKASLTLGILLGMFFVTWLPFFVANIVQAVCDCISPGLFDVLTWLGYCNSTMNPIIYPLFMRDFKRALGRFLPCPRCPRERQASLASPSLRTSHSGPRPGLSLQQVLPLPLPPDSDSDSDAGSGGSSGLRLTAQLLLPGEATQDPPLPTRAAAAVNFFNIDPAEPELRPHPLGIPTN

Serotonin transporter = Serotonin transporter (Homo sapiens, UniProt P31645); assay: Receptor binding, serotonin transporter
Sequence of Serotonin transporter (P31645 whole entry): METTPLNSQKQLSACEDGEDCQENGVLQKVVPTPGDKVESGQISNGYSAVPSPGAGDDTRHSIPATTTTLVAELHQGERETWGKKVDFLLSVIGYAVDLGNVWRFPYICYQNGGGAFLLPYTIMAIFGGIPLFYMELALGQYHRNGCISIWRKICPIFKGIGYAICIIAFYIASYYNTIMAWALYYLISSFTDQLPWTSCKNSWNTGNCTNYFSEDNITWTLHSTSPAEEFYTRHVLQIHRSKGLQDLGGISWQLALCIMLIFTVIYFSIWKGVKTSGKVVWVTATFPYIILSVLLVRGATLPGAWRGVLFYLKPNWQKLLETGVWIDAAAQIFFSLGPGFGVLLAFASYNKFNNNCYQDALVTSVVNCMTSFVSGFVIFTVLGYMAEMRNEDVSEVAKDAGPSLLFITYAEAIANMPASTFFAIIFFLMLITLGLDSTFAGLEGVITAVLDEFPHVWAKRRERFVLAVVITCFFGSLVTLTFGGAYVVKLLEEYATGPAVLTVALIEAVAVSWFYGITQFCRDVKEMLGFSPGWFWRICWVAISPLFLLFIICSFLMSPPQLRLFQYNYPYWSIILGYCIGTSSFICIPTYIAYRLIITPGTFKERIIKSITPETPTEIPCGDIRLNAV

α-Adrenergic α1B = α-Adrenergic α1B (Homo sapiens, UniProt P35368); assay: Receptor binding, α1B
α-Adrenergic α1A = α-Adrenergic α1A (Homo sapiens, UniProt P35348); assay: Receptor binding, α1A
Muscarinic M3 = Muscarinic M3 (Homo sapiens, UniProt P20309); assay: Receptor binding, M3
Serotonin 5-HT1B = Serotonin 5-HT1B (Homo sapiens, UniProt P28222); assay: Receptor binding, 5-HT1B
Sequence of Serotonin 5-HT1B (P28222 whole entry): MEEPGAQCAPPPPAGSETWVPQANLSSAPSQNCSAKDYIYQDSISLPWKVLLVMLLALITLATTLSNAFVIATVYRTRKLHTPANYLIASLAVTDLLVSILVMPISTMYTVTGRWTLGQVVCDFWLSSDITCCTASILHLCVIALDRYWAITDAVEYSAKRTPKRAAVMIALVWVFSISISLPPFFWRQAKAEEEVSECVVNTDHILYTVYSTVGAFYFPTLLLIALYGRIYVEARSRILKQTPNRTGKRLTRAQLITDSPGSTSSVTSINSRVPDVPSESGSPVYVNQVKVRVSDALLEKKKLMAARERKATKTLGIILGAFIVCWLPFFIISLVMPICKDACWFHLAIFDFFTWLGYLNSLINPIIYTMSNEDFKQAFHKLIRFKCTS

Opioid κ = Opioid κ (Homo sapiens, UniProt P41145); assay: Receptor binding, opioid κ
Muscarinic M1 = Muscarinic M1 (Homo sapiens, UniProt P11229); assay: Receptor binding, M1
Sequence of Muscarinic M1 (P11229 whole entry): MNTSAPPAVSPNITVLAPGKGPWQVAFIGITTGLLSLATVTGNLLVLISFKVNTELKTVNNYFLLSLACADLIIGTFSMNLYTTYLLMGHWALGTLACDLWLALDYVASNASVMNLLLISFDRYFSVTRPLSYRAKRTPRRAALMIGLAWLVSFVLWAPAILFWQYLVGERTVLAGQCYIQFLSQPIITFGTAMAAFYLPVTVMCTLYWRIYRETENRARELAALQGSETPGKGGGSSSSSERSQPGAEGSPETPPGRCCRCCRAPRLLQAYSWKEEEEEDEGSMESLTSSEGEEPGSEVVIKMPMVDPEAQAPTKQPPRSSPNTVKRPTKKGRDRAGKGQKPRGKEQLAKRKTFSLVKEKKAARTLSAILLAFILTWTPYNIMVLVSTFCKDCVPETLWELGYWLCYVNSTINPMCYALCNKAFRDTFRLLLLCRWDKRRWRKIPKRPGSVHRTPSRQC

Dopamine D5 = Dopamine D5 (Homo sapiens, UniProt P21918); assay: Receptor binding, D5
Serotonin 5-HT1A = target: T2, Serotonin 5-HT1A (Homo sapiens, UniProt P08908); assay: Receptor binding, 5-HT1A
T2 sequence (P08908 1-422): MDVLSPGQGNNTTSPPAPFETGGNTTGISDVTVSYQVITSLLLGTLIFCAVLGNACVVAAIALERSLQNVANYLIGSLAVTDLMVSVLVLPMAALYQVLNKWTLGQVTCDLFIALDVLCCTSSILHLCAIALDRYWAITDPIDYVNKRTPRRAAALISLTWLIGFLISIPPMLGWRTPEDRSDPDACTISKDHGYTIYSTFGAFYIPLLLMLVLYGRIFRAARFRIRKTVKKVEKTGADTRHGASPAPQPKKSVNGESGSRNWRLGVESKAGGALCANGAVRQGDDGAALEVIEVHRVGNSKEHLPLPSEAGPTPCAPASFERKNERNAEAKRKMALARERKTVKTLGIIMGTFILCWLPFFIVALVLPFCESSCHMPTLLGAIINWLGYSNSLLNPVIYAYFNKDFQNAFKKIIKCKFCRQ

Dopamine D2 = Dopamine D2 (Homo sapiens, UniProt P14416); assay: Receptor binding, D2
Serotonin 5-HT2B = Serotonin 5-HT2B (Homo sapiens, UniProt P41595); assay: Receptor binding, 5-HT2B
Sequence of Serotonin 5-HT2B (P41595 whole entry): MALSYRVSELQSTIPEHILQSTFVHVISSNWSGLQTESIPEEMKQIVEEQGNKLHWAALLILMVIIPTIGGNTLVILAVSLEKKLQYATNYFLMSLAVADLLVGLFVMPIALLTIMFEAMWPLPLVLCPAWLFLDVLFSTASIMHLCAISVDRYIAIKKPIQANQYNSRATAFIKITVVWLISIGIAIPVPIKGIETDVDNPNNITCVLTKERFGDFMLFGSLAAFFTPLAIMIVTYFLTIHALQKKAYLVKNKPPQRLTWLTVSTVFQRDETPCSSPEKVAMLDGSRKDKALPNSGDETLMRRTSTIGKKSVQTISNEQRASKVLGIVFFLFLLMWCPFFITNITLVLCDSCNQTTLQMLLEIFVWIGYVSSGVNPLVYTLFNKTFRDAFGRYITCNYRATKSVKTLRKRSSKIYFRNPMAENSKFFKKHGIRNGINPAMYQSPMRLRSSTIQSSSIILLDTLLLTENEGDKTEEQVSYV

α-Adrenergic α2A = target: T3, α-Adrenergic α2A (Homo sapiens, UniProt P08913); assay: Receptor binding, α2A
T3 sequence (P08913 1-465): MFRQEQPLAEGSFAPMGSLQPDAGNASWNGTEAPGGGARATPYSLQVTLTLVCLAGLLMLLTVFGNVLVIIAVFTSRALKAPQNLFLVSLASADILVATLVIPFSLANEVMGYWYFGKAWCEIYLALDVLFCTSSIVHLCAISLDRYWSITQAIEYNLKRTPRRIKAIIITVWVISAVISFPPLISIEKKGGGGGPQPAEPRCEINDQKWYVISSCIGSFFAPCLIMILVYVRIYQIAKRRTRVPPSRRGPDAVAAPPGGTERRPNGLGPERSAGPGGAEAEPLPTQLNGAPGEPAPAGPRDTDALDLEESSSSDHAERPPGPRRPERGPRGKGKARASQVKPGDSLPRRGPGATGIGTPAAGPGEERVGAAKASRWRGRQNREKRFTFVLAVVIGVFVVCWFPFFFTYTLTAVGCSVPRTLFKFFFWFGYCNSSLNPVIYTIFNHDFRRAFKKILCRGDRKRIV

α-Adrenergic α2B = target: T4, α-Adrenergic α2B (Homo sapiens, UniProt P18089); assay: Receptor binding, α2B
T4 sequence (P18089 1-450): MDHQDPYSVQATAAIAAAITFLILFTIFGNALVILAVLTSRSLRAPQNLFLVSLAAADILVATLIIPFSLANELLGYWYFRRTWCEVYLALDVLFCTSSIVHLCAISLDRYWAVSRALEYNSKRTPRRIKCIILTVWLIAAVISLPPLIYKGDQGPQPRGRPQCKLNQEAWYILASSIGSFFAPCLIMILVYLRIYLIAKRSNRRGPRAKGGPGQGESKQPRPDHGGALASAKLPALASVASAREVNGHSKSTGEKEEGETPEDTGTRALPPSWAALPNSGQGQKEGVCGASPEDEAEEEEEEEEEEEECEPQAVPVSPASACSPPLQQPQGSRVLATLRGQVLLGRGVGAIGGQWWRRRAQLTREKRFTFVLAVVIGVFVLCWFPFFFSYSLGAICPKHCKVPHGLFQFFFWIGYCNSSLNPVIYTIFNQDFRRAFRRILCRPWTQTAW

Histamine H2 = Histamine H2 (Homo sapiens, UniProt P25021); assay: Receptor binding, H2
Serotonin 5-HT2C = target: T5, Serotonin 5-HT2C (Homo sapiens, UniProt P28335); assay: Receptor binding, 5-HT2C; details: 5-HT2C
T5 sequence (P28335 33-458): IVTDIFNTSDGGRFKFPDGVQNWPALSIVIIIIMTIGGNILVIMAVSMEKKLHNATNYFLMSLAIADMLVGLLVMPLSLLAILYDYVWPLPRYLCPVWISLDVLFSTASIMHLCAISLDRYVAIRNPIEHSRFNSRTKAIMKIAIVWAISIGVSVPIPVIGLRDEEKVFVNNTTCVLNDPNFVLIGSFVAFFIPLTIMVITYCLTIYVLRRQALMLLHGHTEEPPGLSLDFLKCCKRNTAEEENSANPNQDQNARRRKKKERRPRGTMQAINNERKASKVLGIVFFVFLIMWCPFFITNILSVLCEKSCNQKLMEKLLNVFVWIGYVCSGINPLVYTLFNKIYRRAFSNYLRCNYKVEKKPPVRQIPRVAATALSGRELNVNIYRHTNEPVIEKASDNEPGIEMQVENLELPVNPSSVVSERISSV

Serotonin 5-HT1E = Serotonin 5-HT1E (Homo sapiens, UniProt P28566); assay: Receptor binding, 5-HT1E
Sigma σ2 = Sigma σ2 (Homo sapiens, UniProt Q5BJF2); assay: Receptor binding, σ2; details: σ2
Sequence of Sigma σ2 (Q5BJF2 whole entry): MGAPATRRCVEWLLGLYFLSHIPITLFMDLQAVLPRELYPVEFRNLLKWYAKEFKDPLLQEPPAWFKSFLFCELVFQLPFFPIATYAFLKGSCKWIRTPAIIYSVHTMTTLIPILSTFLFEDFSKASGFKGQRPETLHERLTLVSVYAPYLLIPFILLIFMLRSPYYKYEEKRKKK

Serotonin 5-HT2A = Serotonin 5-HT2A (Homo sapiens, UniProt P28223); assay: Receptor binding, 5-HT2A
Sequence of Serotonin 5-HT2A (P28223 whole entry): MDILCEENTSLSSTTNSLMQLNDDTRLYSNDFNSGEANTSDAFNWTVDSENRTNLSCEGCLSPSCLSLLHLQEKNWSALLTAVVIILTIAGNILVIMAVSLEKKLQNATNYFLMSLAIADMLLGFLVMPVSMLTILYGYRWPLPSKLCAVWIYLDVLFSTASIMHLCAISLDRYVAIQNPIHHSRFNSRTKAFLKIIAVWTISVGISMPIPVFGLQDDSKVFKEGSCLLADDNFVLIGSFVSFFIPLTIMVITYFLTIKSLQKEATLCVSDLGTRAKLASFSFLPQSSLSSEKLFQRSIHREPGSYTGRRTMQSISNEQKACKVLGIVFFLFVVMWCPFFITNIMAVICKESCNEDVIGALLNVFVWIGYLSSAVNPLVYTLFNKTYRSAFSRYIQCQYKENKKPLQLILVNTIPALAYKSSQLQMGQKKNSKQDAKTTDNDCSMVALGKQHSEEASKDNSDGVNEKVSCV

Dopamine D3 = Dopamine D3 (Homo sapiens, UniProt P35462); assay: Receptor binding, D3
Sequence of Dopamine D3 (P35462 whole entry): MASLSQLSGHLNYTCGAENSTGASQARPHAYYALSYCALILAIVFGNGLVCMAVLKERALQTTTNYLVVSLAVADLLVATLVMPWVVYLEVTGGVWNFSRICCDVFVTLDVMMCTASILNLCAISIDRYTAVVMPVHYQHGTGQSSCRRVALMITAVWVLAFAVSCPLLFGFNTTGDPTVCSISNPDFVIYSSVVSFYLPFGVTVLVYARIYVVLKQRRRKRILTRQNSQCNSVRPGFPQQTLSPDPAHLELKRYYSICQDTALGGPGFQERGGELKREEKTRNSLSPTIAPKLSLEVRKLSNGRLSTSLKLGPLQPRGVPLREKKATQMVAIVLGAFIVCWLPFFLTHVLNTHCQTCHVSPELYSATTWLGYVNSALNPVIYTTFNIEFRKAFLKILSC

[1] = target: Norepinephrine transporter (Homo sapiens, UniProt P23975); assay: Receptor binding, norepinephrine transporter; details: Transporters: Norepinephrine
dopamine receptors = assay: Receptor binding, dopamine receptors; details: any of the dopamine receptors, summary of Table 1

Sequence of Histamine H1 (P35367 whole entry): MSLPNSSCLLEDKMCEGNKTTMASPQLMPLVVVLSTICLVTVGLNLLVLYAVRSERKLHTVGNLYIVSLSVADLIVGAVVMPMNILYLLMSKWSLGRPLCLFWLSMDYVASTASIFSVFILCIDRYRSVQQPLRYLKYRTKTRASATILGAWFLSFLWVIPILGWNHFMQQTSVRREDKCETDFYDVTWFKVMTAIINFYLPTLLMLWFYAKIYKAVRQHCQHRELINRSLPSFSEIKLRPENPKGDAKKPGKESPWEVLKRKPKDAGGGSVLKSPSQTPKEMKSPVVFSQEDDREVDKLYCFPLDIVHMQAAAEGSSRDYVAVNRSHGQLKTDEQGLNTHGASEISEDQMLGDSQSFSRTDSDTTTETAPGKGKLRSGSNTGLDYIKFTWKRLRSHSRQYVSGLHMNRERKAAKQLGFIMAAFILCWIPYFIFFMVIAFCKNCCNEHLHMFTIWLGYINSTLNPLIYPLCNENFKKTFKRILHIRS

| Ki (Histamine H1) | Ki (Serotonin 5-HT1D) | Ki (Serotonin 5-HT7) | Ki (α-Adrenergic α2C) | Ki (Serotonin 5-HT6) | Ki (Serotonin 5-HT1B) | Ki (Serotonin 5-HT1A) | Ki (Serotonin 5-HT2B) | Ki (α-Adrenergic α2A) | Ki (α-Adrenergic α2B) | Ki (Sigma σ2) | Ki (Serotonin 5-HT2A) | SMILES | further results |
| --- | --- | --- | --- | --- | --- | --- | --- | --- | --- | --- | --- | --- | --- |
| 50 nM | 85 nM | 100 nM | 173 nM | 155 nM | 1360 nM | 596 nM | 87 nM | 228 nM | 413 nM | 2230 nM | 24 nM | CN1CCc2c(c3cccc4c3n2-c2ccccc2CC4)C1 [Compound 6a, reference compound] | Ki (α-Adrenergic α1D): 595 nM; Ki (Serotonin 5-HT5A): 750 nM; Ki (Muscarinic M5): 5.17 µM; Ki (Serotonin transporter; Transporters: Serotonin): 2190 nM; Ki (α-Adrenergic α1B): 3.31 µM; Ki (α-Adrenergic α1A): 2370 nM; Ki (Muscarinic M3): 3.76 µM; Ki (Opioid κ): 2180 nM; Ki (Muscarinic M1): 4.46 µM; Ki (Dopamine D5): 581 nM; Ki (Dopamine D2): 835 nM; Ki (Histamine H2): 81 nM; Ki (Serotonin 5-HT2C): 10 nM; Ki (Serotonin 5-HT1E): 4.04 µM |
| 48 nM | 29 nM | 212 nM | 770 nM | 273 nM | 715 nM | 375 nM | 57 nM | 1800 nM | 2190 nM | 520 nM | 736 nM | CN1CCc2c(c3cccc4c3n2Cc2ccccc2C4)C1 [Compound 13a] | binding, in words (Histamine H1; H1, text summary of Table 1): strong binding; binding, in words (Serotonin 5-HT1D; summary of Table 1): strong binding; binding, in words (Serotonin 5-HT7; 5-HT7, text summary of Table 1): moderate binding; Ki (Dopamine D3): 1500 nM; binding, in words (Serotonin 5-HT6; 5-HT6, text summary of Table 1): moderate binding; Ki (Serotonin transporter): 2190 nM; Ki [1]: > 10 µM; binding, in words (Serotonin 5-HT1A; summary of Table 1): moderate binding; binding, in words (Serotonin 5-HT2B; summary of Table 1): strong binding; binding, in words (dopamine receptors): neither of the two compounds 13a and 13b binds significantly |
